According to PMC9574862, “Designing Soluble PROTACs: Strategies and Preliminary Guidelines” (Journal of Medicinal Chemistry, 2022):
In brackets after ≈: the same amount, converted by molar mass.

Columns and labels:
[1] = Thermodynamic solubility, shake-flask, 10 mM PBS (0.15 M KCl) pH 7, 25 °C, 1 h, HPLC-UV; conditions: for solubility at 1 h / Solubility (in words) / Classification (GSK guidelines): pH 7, 25 °C; for Classification (GSK guidelines): solubility class
Description: Its measurement only requires an initial DMSO stock solution which is precipitated by the addition of an aqueous phase.[23],[24] Here, we measured thermodynamic solubility, often determined in late lead optimization, which efficiently considers the solubility value when the equilibrium with the stable phase or polymorph has been reached.
Solubility was determined in 10 mM PBS (0.15 M KCl) at pH 7, 25 °C. A 1–2 mg sample of each molecule was added to the same quantity (1–2 mL) of the mentioned buffer to obtain 1 mg/mL solutions in the vial. Samples were then submitted to 25 °C and magnetic stirring (500 rpm) for 1 h. After this period, solutions or suspensions were filtered through the 0.45 μm membrane pore and diluted with buffer, 10 mM PBS (0.15 M KCl). The amount of dissolved compound in each sample was then quantified, in duplicate, via HPLC using ultraviolet (UV) spectrometric detection.
Variable volumes of pure DMSO (0–100 μL) were added separately to small and defined (1 mg) quantities of each compound to obtain clear solutions. […] Afterward, 5% DMSO 10 mM PBS (0.15 M KCl) was added until the suspensions or precipitations were redissolved, to render clear solutions. As soon as solutions were obtained, they were used as mother solutions for the performance of 5–10 point calibration curves with serial buffer dilutions (1:1; v/v) 5% DMSO 10 mM PBS (0.15 M KCl). Calibration points were then measured via HPLC-UV.
The mobile phase consisted of a solution of acetonitrile (ACN) and 20 mM ammonium acetate buffer (AAB), pH 7, freshly prepared. A 10 μL volume of each sample (volume of injection) was injected at an isocratic 1 mL/min flow rate analyzed at 30 °C (oven temperature). Solubility determination of each compound required a specific HPLC method. Settings are collected in Table S11 (PROTACs) and Table S10 (building blocks).
Injections were performed in duplicate for each molecule’s calibration points. The retention time and area under the curve (AUC in absorbance units) were collected, and the average was calculated. The AUC average (y-axis) was plotted versus theoretical concentration (mg/mL; x-axis) to obtain a calibration curve for each molecule. Correlation equations and coefficients (R^2) were efficiently calculated for each compound (Table S12 for PROTACs and Table S10 for building blocks). Samples were then injected in duplicate, and the AUC averages and standard deviations were calculated. Finally, the absorbance averages were interpolated into the corresponding equations, extracting the final solubility values with their standard deviation, after dilution factor corrections.

[2] = log kw^IAM – clog kw^IAM
Description: Since polarity is a molecular property often related to solubility,[13] experimental descriptors of polarity (Δ log kw^IAM and EPSA) were also determined. Introduced by Grumetto in 2012,[30] Δ log kw^IAM is the difference between the experimental log kw^IAM and the value expected for neutral analytes with a zero value of polar surface area (which depends on the experimental measurement of the n-octanol partition coefficient[31]). EPSA quantifies the polarity of a molecule using a supercritical fluid chromatographic (SFC) method.[32]

[3] = 25 °C, pH 7, aqueous buffer, thermodynamic from solid, Solubility average, thermodynamic, shake-flask, 1 h
[4] = pH 7, aqueous buffer, thermodynamic from solid
[5] = 25 °C, pH 7, aqueous buffer, thermodynamic from solid, Exp.LogS, PROTAC pairs and building blocks
[6] = 25 °C, pH 7, aqueous buffer, thermodynamic from solid, Solubility, Table S-3
[7] = 25 °C, pH 7, aqueous buffer, thermodynamic from solid, Solubility log S, Table S-3
[8] = pH 7, Exp.LogS, PROTAC pairs and building blocks

| SMILES | solubility at 1 h [1, 3] [µM] | Solubility (in words) [1] | solubility thermodynamic at 1 h [1, 4] [µg/mL] | Classification (GSK guidelines) [1] | solubility at 1 h [1, 5] [µM] | solubility at 1 h [1, 6] [µg/mL] | solubility at 1 h [1, 7] [µM] | ΔLog kw IAM [2] | solubility at 1 h [1, 8] [µM] |
| --- | --- | --- | --- | --- | --- | --- | --- | --- | --- |
| Cc1ncsc1-c1ccc(CNC(=O)[C@@H]2C[C@@H](O)CN2C(=O)[C@@H](NC(=O)C2(F)CC2)C(C)(C)C)c(OCCOc2ccc(CN3CCN(c4cc(-c5ccccc5O)nnc4N)CC3)cc2)c1 [ACBI1] | < 0.72 | below the quantification limit | < 0.68 | Low (< 30 μM) (Low (< 30 μM)) | – | – | – | – | – |
| Cc1sc2c(c1C)C(c1ccc(Cl)cc1)=N[C@@H](CC(=O)Nc1ccc(OCCOCCOCCOCCNc3cccc4c3C(=O)N(C3CCC(=O)NC3=O)C4=O)cc1)c1nnc(C)n1-2 (stereo partly drawn) [ARV-825] | < 0.32 | below the quantification limit | < 0.29 | Low (< 30 μM) (Low (< 30 μM)) | – | – | – | – | – |
| COc1cc(C(=O)NCCOCCOCCOCC(=O)N[C@H](C(=O)N2C[C@H](O)C[C@H]2C(=O)NCc2ccc(-c3scnc3C)cc2)C(C)(C)C)ccc1Nc1ncc(C(F)(F)F)c(Oc2cccc3c2C(=O)CC3)n1 [BI-0319] | 2.63 | – | 2.78 (≈ 2.62 µM) | Low (< 30 μM) (Low (< 30 μM)) | 2.63 | – | – | – | – |
| COc1cc(C(=O)NCCOCCOCCOCCC(=O)Nc2cccc3c2C(=O)N(C2CCC(=O)NC2=O)C3=O)ccc1Nc1ncc(C(F)(F)F)c(Oc2cccc3c2C(=O)CC3)n1 (stereo not drawn) [BI-3663] | 6.92 | – | – | Low (< 30 μM) (Low (< 30 μM)) | 6.92 | 10 | – | – | – |
| COc1cc(C(=O)NCCOCCOCCOCC(=O)N[C@H](C(=O)N2C[C@@H](O)C[C@H]2C(=O)NCc2ccc(-c3scnc3C)cc2)C(C)(C)C)ccc1Nc1ncc(C(F)(F)F)c(Oc2cccc3c2C(=O)CC3)n1 [BI-4206] | 0.58 | – | 0.606 (≈ 0.571 µM) | Low (< 30 μM) (Low (< 30 μM)) | 0.575 | – | – | – | – |
| COc1cc(-c2cn(C)c(=O)c3cc(C(=N)NC4CCS(=O)(=O)CC4)sc23)ccc1OCC(=O)NCCCCNC(=O)COc1cccc2c1C(=O)N(C1CCC(=O)NC1=O)C2=O (stereo not drawn) [BRD9 degrader-1] | 661 | – | – | High (> 200 μM) (High (> 200 μM)) | – | 600 | 661 | high | – |
| CC(=O)c1c(C)c2cnc(Nc3ccc(N4CCN(CCOCCOCCOCCNC(=O)COc5cccc6c5C(=O)N(C5CCC(=O)NC5=O)C6=O)CC4)cn3)nc2n(C2CCCC2)c1=O (stereo not drawn) [BSJ-03-123] | 17.8 | – | – | Low (< 30 μM) (Low (< 30 μM)) | – | 20 | 17.8 | – | – |
| Cc1ncsc1-c1ccc(CNC(=O)[C@@H]2C[C@@H](O)CN2C(=O)[C@@H](NC(=O)COCCOCCOCCOCCOCCOCC(=O)N[C@H](C(=O)N2C[C@H](O)C[C@H]2C(=O)NCc2ccc(-c3scnc3C)cc2)C(C)(C)C)C(C)(C)C)cc1 [CM11] | 631 | – | – | High (> 200 μM) (High (> 200 μM)) | – | 730 | 631 | high | – |
| Cc1ncsc1-c1ccc(CNC(=O)[C@@H]2C[C@@H](O)CN2C(=O)[C@@H](NC(=O)CCCCOCCCCCOCCCCCCNc2cccc3c2C(=O)N(C2CCC(=O)NC2=O)C3=O)C(C)(C)C)cc1 (stereo partly drawn) [CRBN-6-5-5-VHL] | 1.23 | – | 1.19 (≈ 1.22 µM) | Low (< 30 μM) (Low (< 30 μM)) | – | – | 1.23 | – | – |
| Cc1ncsc1-c1ccc(CNC(=O)[C@@H]2C[C@H](O)CN2C(=O)[C@@H](NC(=O)C2(F)CC2)C(C)(C)C)c(OCCOc2ccc(CN3CCN(c4cc(-c5ccccc5O)nnc4N)CC3)cc2)c1 [CisACBI1] | < 0.87 | below the quantification limit | < 0.817 | Low (< 30 μM) (Low (< 30 μM)) | – | – | < 0.871 | – | – |
| Cc1ncsc1-c1ccc(CNC(=O)[C@@H]2C[C@H](O)CN2C(=O)[C@@H](NC(=O)COCCOCCOCCNC(=O)C[C@@H]2N=C(c3ccc(Cl)cc3)c3c(sc(C)c3C)-n3c(C)nnc32)C(C)(C)C)cc1 [CisMZ1] | 50.1 | – | – | Intermediate (30–200 μM) (Intermediate (30–200 μM)) | – | 50 | 50.1 | – | – |
| COc1cc2ncnc(Nc3ccc(F)c(Cl)c3)c2cc1OCCCCCOCCOCCC(=O)N[C@H](C(=O)N1C[C@H](O)C[C@H]1C(=O)NCc1ccc(-c2scnc2C)cc1)C(C)(C)C [Gefitinib-based PROTAC 3] | 1.23 | – | 1.14 (≈ 1.22 µM) | Low (< 30 μM) (Low (< 30 μM)) | – | – | 1.23 | – | – |
| O=C1CCC(N2Cc3c(C#CCCCNC(=O)c4ccc(NC(=O)[C@@H]5NC6(CCCCC6)[C@@]6(C(=O)Nc7cc(Cl)ccc76)[C@H]5c5cccc(Cl)c5F)cc4)cccc3C2=O)C(=O)N1 (stereo partly drawn) [MD-224] | < 0.23 | below the quantification limit | < 0.289 | Low (< 30 μM) (Low (< 30 μM)) | – | – | < 0.229 | – | – |
| Cc1ncsc1-c1ccc(CNC(=O)[C@@H]2C[C@@H](O)CN2C(=O)[C@@H](NC(=O)COCCOCCOCCNC(=O)C[C@@H]2N=C(c3ccc(Cl)cc3)c3c(sc(C)c3C)-n3c(C)nnc32)C(C)(C)C)cc1 [MZ1] | 38 | – | – | Intermediate (30–200 μM) (Intermediate (30–200 μM)) | 38 | 40 | – | – | – |
| CC(=O)N1c2ccc(-c3ccc(C(=O)NCCOCCOCCOCC(=O)N[C@H](C(=O)N4C[C@H](O)C[C@H]4C(=O)NCc4ccc(-c5scnc5C)cc4)C(C)(C)C)cc3)cc2[C@H](Nc2ccc(Cl)cc2)C[C@@H]1C [MZP-54] | 0.51 | – | 0.528 (≈ 0.509 µM) | Low (< 30 μM) (Low (< 30 μM)) | 0.513 | – | – | – | – |
| O=C(CCCCC(=O)NCCN1C(=O)c2cccc3c(Sc4ccc(Br)cc4)ccc(c23)C1=O)NCCCCCCNc1cccc2c1C(=O)N(C1CCC(=O)NC1=O)C2=O (stereo not drawn) [Mcl1 degrader-1] | < 0.87 | below the quantification limit | < 0.793 | Low (< 30 μM) (Low (< 30 μM)) | – | – | < 0.871 | – | – |
| CC(C)(C)c1cnc(CSc2cnc(NC(=O)C3CCN(CC(=O)NCCOCCOCCOCCNc4cccc5c4C(=O)N(C4CCC(=O)NC4=O)C5=O)CC3)s2)o1 (stereo not drawn) [THAL-SNS-032] | 52.5 | – | – | Intermediate (30–200 μM) (Intermediate (30–200 μM)) | – | 50 | 52.5 | – | – |
| COc1cc(-c2cn(C)c(=O)c3cnccc23)cc(OC)c1CN1CCN(CCCCCOc2cc(-c3scnc3C)ccc2CNC(=O)[C@@H]2C[C@@H](O)CN2C(=O)[C@@H](NC(=O)C2(F)CC2)C(C)(C)C)CC1 [VZ185] | 50.1 | – | – | Intermediate (30–200 μM) (Intermediate (30–200 μM)) | – | 50 | 50.1 | – | – |
| COC(=O)C[C@@H]1N=C(c2ccc(Cl)cc2)c2c(sc(C(=O)NCCCCCNc3cccc4c3C(=O)N(C3CCC(=O)NC3=O)C4=O)c2C)-n2c(C)nnc21 (stereo partly drawn) [ZXH-3-26] | 2.95 | – | – | Low (< 30 μM) (Low (< 30 μM)) | – | – | – | – | 2.95 |
| Cc1sc2c(c1C)C(c1ccc(Cl)cc1)=N[C@@H](CC(=O)NCCNc1cccc3c1C(=O)N(C1CCC(=O)NC1=O)C3=O)c1nnc(C)n1-2 (stereo partly drawn) [dBET57] | 30.2 | – | – | Intermediate (30–200 μM) (Intermediate (30–200 μM)) | – | 20 | – | – | 30.2 |
